Results as given in ChEMBL document CHEMBL3593206, “SAR Studies of Exosite-Binding Substrate-Selective Inhibitors of A Disintegrin And Metalloprotease 17 (ADAM17) and Application as Selective in Vitro Probes” (J Med Chem, 2015).

Assays:
[1] = target: T1, Disintegrin and metalloproteinase domain-containing protein 17 (Homo sapiens, UniProt P78536); assay: Inhibition of ADAM17 in HTSMC assessed as inhibition of DDR1 shedding by immunoblot analysis
[2] = target: T1, Disintegrin and metalloproteinase domain-containing protein 17; assay: Inhibition of ADAM17 in human SK-MEL-28 cells assessed as inhibition of notch shedding at 25 uM relative to control; type: cell-based

T1 sequence (P78536 whole entry, the tested form may be a part): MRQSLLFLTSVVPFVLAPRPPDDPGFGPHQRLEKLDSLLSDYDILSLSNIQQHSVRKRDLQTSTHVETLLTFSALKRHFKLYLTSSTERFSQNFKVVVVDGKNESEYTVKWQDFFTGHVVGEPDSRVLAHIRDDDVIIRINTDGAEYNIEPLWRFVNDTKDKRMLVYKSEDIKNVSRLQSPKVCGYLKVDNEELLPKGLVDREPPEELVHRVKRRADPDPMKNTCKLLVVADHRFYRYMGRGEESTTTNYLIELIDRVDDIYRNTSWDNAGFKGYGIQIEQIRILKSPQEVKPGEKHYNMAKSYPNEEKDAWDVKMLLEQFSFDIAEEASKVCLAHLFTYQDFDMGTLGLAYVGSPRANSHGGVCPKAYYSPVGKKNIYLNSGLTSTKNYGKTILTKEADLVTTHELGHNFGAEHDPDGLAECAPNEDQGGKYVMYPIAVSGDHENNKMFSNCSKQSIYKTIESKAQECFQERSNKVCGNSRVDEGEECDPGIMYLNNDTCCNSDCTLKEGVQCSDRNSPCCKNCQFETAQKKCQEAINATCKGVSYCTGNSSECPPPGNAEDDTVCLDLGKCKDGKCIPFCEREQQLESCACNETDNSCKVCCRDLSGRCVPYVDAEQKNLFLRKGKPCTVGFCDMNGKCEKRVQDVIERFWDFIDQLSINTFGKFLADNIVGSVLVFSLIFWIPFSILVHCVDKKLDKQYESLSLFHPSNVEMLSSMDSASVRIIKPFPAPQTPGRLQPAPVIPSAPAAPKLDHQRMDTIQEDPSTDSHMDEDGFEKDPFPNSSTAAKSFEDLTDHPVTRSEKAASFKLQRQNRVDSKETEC

inhibition [1]: Dose-dependent effect | inhibition [2]: 0%
Structure (SMILES): O=C1NC[C@@H](Cc2ccc(O)cc2)N(C[C@@H]2CCCN2C[C@@H](Cc2ccc3ccccc3c2)N2CC(Cc3ccc(O)cc3)N(CCC34CC5CC(CC(C5)C3)C4)C(=O)C2=O)C1=O (single isomer, unassigned)
